In BindingDB's records for doi:10.1111/cbdd.12596 (Nanjing University, 2015):

Experiments:
Assay in all cases: VEGFR2 Kinase Assay
Details in all cases: pH 7.2; 25 °C
[1] = molecular target: Vascular endothelial growth factor receptor 2 (Homo sapiens, UniProt P35968)
Method: VEGFR kinase assays were set up to assess the level of autophosphorylation based on DELFIA/Time-Resolved Fluorometry. 96-well plates were coated at room temperature for 1-2 h with 100 μL per well of 25 μg mL−1 poly-(Glu4-Tyr) peptide (Sigma) in Tris-buffered saline (TBS) (25 mM Tris, pH 7.2, 150 mM NaCl). Unbound peptide was washed three times with PBS. The cytoplasmic domain of VEGFR-2 enzyme was diluted (depending on the specific activity of the batch, from 10- to 20-fold) in 0.1% BSA/4 mM HEPES. […] Controls were done by adding DMSO alone, i.e., no test compound, to wells containing the master mix of enzyme plus kinase buffer. After 15 min at room temperature, ATP/MgCl2 (20 μL of

[2] = molecular target: Fibroblast growth factor 2 (Homo sapiens, UniProt P09038)
[3] = molecular target: Epidermal growth factor receptor (Homo sapiens, UniProt P00533)
Chain of Epidermal growth factor receptor (P00533 whole entry): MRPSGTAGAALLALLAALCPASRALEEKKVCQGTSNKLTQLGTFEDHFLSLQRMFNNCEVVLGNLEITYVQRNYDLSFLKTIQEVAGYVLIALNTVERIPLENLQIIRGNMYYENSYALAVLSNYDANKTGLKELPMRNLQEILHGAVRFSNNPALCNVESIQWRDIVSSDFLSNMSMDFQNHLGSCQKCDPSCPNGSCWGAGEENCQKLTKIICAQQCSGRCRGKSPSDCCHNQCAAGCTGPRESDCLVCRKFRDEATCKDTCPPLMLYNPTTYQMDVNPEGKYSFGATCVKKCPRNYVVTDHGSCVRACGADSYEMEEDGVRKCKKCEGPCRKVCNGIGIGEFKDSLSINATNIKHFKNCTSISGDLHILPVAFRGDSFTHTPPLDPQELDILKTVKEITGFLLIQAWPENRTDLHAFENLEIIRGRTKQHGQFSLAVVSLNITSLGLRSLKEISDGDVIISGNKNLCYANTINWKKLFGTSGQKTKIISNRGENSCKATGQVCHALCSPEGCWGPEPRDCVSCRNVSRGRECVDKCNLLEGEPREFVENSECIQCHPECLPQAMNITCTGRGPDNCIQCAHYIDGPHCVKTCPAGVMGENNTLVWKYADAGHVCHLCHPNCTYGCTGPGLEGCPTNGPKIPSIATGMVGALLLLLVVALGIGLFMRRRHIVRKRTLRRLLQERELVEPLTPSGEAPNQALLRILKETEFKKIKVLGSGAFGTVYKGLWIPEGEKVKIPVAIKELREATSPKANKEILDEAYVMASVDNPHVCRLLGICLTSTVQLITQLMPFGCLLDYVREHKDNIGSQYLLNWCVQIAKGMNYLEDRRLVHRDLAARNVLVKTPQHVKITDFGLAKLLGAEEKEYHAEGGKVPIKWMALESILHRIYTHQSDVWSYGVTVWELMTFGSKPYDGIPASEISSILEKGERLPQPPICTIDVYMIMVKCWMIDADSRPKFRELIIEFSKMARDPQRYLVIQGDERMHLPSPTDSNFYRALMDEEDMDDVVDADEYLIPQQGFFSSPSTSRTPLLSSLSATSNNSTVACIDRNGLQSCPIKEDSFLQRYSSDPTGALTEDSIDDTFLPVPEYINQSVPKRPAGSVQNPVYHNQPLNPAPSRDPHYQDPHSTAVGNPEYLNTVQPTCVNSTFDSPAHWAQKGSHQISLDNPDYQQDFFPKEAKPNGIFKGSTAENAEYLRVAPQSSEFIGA

Chain of Vascular endothelial growth factor receptor 2 (P35968 whole entry, the tested form may be a part): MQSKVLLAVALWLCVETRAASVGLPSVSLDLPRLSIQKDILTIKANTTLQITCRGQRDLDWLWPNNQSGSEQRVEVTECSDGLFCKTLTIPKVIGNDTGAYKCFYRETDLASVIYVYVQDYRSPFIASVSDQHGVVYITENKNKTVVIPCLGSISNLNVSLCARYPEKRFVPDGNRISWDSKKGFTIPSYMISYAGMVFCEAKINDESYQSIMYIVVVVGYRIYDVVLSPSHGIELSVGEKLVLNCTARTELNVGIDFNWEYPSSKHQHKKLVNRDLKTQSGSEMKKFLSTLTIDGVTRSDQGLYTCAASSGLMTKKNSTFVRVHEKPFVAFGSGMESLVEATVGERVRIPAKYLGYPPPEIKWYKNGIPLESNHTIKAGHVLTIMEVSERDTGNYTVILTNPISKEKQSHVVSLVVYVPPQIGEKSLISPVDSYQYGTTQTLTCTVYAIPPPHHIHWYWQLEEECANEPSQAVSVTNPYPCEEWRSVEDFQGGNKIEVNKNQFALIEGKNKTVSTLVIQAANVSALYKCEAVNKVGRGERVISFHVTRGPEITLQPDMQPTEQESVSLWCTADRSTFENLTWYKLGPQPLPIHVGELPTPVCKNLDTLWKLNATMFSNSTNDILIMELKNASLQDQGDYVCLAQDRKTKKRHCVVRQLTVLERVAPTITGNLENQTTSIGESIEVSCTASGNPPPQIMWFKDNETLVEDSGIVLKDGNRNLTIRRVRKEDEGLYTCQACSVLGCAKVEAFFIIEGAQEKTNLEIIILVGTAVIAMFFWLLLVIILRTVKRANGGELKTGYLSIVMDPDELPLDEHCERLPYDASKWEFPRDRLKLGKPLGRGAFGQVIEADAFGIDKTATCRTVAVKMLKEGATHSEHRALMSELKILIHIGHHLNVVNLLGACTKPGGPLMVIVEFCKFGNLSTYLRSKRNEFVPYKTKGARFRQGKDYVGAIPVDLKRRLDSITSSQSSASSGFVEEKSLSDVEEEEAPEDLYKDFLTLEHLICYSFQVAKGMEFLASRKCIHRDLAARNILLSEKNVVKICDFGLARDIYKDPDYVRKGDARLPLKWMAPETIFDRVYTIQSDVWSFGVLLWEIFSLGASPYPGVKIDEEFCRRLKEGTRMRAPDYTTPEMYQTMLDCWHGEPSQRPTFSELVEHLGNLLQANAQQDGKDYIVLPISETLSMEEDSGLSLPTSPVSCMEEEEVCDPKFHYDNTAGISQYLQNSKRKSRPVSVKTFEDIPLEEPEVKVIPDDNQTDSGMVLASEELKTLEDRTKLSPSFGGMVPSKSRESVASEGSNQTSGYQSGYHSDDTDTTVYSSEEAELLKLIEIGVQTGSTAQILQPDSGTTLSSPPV

| IC50 [1] [nM] | IC50 [2] [nM] | IC50 [3] [nM] | Compound |
| --- | --- | --- | --- |
| 9.98 | 209 | 357 | COc1ccccc1N1CCN(CC(O)COc2ncnc3ccccc23)CC1 (configuration not stated) [1-(4-(2-Methoxyphenyl)piperazin-1-yl)-3-(quinazolin-4-yloxy)propan-2-ol (3g)] |
| 32.6 | 293 | 400 | OC(COc1ncnc2ccccc12)CN1CCN(c2ccccc2)CC1 (configuration not stated) [1-(4-Phenylpiperazin-1-yl)-3-(quinazolin-4-yloxy)propan-2-ol (3a)] |
| 54.4 | 519 | 462 | CCN1CCN(CC(O)COc2ncnc3ccccc23)CC1 (configuration not stated) [1-(4-Ethylpiperazin-1-yl)-3-(quinazolin-4-yloxy)propan-2-ol (3p)] |
| 59.3 | 419 | 474 | CN1CCN(CC(O)COc2ncnc3ccccc23)CC1 (configuration not stated) [1-(4-Methylpiperazin-1-yl)-3-(quinazolin-4-yloxy)propan-2-ol (3o)] |
| 52.2 | 444 | 435 | OC(COc1ncnc2ccccc12)CN1CCN(Cc2ccccc2)CC1 (configuration not stated) [1-(4-Benzylpiperazin-1-yl)-3-(quinazolin-4-yloxy)propan-2-ol (3n)] |
| 2.89 | 103 | 208 | COc1cccc(N2CCN(CC(O)COc3ncnc4ccccc34)CC2)c1 (configuration not stated) [1-(4-(3-Methoxyphenyl)piperazin-1-yl)-3-(quinazolin-4-yloxy)propan-2-ol (3h)] |
| 21.8 | 300 | 403 | OC(COc1ncnc2ccccc12)CN1CCN(c2ccc(F)cc2)CC1 (configuration not stated) [1-(4-(4-Fluorophenyl)piperazin-1-yl)-3-(quinazolin-4-yloxy)propan-2-ol (3e)] |
| 47.4 | 402 | 413 | OC(COc1ncnc2ccccc12)CN1CCN(c2cccc(Cl)c2)CC1 (configuration not stated) [1-(4-(3-Chlorophenyl)piperazin-1-yl)-3-(quinazolin-4-yloxy)propan-2-ol (3c)] |
| 12.4 | 222 | 395 | Cc1ccc(N2CCN(CC(O)COc3ncnc4ccccc34)CC2)c(C)c1 (configuration not stated) [1-(4-(2,4-Dimethylphenyl)piperazin-1-yl)-3-(quinazolin-4-yloxy)propan-2-ol (3m)] |
| 78.5 | 593 | 474 | OC(COc1ncnc2ccccc12)CN1CCCCC1 (configuration not stated) [1-(Piperidin-1-yl)-3-(quinazolin-4-yloxy)propan-2-ol (3s)] |
| 34.7 | 372 | 409 | OC(COc1ncnc2ccccc12)CN1CCN(c2ccccc2F)CC1 (configuration not stated) [1-(4-(2-Fluorophenyl)piperazin-1-yl)-3-(quinazolin-4-yloxy)propan-2-ol (3d)] |
| 55.7 | 586 | 444 | Cc1nccn1CC(O)COc1ncnc2ccccc12 (configuration not stated) [1-(2-Methyl-1H-imidazol-1-yl)-3-(quinazolin-4-yloxy)propan-2-ol (3u)] |
| 63 | 582 | 455 | CN(C)CC(O)COc1ncnc2ccccc12 (configuration not stated) [1-(Dimethylamino)-3-(quinazolin-4-yloxy)propan-2-ol (3q)] |
| 8.42 | 178 | 344 | OC(COc1ncnc2ccccc12)CN1CCN(c2ccc(Cl)c(Cl)c2)CC1 (configuration not stated) [1-(4-(3,4-Dichlorophenyl)piperazin-1-yl)-3-(quinazolin-4-yloxy)propan-2-ol (3l)] |
| 4.98 | 145 | 307 | OC(COc1ncnc2ccccc12)CN1CCN(c2cccc(C(F)(F)F)c2)CC1 (configuration not stated) [1-(4-(3-(Trifluoromethyl)phenyl)piperazin-1-yl)-3-(quinazolin-4-yloxy)propan-2-ol (3j)] |
| 74.2 | 592 | 452 | Cc1cn(CC(O)COc2ncnc3ccccc23)cn1 (configuration not stated) [1-(4-Methyl-1H-imidazol-1-yl)-3-(quinazolin-4-yloxy)propan-2-ol (3v)] |
| 49.8 | 506 | 418 | OC(COc1ncnc2ccccc12)CN1CCN(c2ccccc2Cl)CC1 (configuration not stated) [1-(4-(2-Chlorophenyl)piperazin-1-yl)-3-(quinazolin-4-yloxy)propan-2-ol (3b)] |
| 16.5 | 248 | 382 | O=[N+]([O-])c1ccc(N2CCN(CC(O)COc3ncnc4ccccc34)CC2)cc1 (configuration not stated) [1-(4-(4-Nitrophenyl)piperazin-1-yl)-3-(quinazolin-4-yloxy)propan-2-ol (3f)] |
| 84.3 | 609 | 483 | OC(COc1ncnc2ccccc12)Cn1ccnc1 (configuration not stated) [1-(1H-Imidazol-1-yl)-3-(quinazolin-4-yloxy)propan-2-ol (3t)] |
| 81.7 | 602 | 483 | OC(COc1ncnc2ccccc12)CN1CCOCC1 (configuration not stated) [1-Morpholino-3-(quinazolin-4-yloxy)propan-2-ol (3r)] |
| 47.7 | 398 | 409 | OC(COc1ncnc2ccccc12)CN1CCN(c2cccc(Cl)c2Cl)CC1 (configuration not stated) [1-(4-(2,3-Dichlorophenyl)piperazin-1-yl)-3-(quinazolin-4-yloxy)propan-2-ol (3k)] |
| 3.42 | 122 | 276 | COc1ccc(N2CCN(CC(O)COc3ncnc4ccccc34)CC2)cc1 (configuration not stated) [1-(4-(4-Methoxyphenyl)piperazin-1-yl)-3-(quinazolin-4-yloxy)propan-2-ol (3i)] |
| – | 114 | – | COc1cc2nccc(Oc3ccc(NC(=O)Nc4cc(C)on4)c(Cl)c3)c2cc1OC [Tivozanib] |
